Assay results taken from patent US11613531B2, “Inhibitors of RHO associated coiled-coil containing protein kinase” (Kadmon Corporation, LLC, priority 2017, dated 2023).
Where two headings read alike, the source gives them in different places.

Legend:
[1] = target: Recombinant ROCK2 (amino acids 1-552) (Homo sapiens (Human), UniProt O75116); test: Z′-Lyte kinase assay, ROCK2; type: biochemical; details: for inhibition at 0.5 µM: 0.5 μM compound; for inhibition at 0.5 µM / inhibition at 1 µM: read-out: ROCK2 % inh. @ [conc]; for inhibition at 1 µM: 1 μM compound
In short: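 Recombinant human ROCK1 (aa 1-535) or ROCK2 (aa 1-552) activity read by Z′-Lyte kinase assay. Percent inhibition at 1 μM compound was normalized to DMSO control; IC50 from 9-point 2-fold serial dilutions by nonlinear regression.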

[2] = system: ppMlc (T18/S19) levels in A7R5 cells; test: A7R5 in-cell ELISA (pMLC); type: cell-based, Rat; details: Rattus norvegicus, A7R5, A7R5 cells; for inhibition at 1 µM: 1 μM compound
In short: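 A7R5 rat aortic smooth muscle cells seeded 24 h, then treated 90 min with a 9-point 2-fold compound dilution series. Fixed cells probed for ppMlc (T18/S19) by colorimetric in-cell ELISA; cellular IC50 from nonlinear regression curve fit.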

[3] = system: human ACTA2 gene promoter luciferase reporter in NIH3T3 cells; test: NIH3T3 Acta2-promoter driven-luciferase assay; type: cell-based; details: NIH3T3, 24 h, read-out: NIH3T3 Acta2-luc, IC50
Protocol: NIH3T3 Cells Acta2-Promoter Driven-Luciferase Assay.
A NIH3T3 cell line stably expressing a luciferase reporter driven by the human ACTA2 gene promoter (−1000-1 bp) was established (NIH3T3-Acta2-luciferase). The cells were plated to confluence and treated with the test compounds plus TGFβ1 for 24 hr. Cells were then lysed and luciferase activity was measured using the LightSwitch luciferase kit from Active Motif.
In vitro activities for the compounds were measured with Z′-lyte kinase kit (ThermoFisher Scientific). The percent inhibition rate was calculated by normalizing the kinase activity value obtained with 1 μM compound treatment against DMSO control value and then applied to the formula, [1-(compound/DMSO)]×100%. IC50s were calculated using the nonlinear regression curve fit function of the GraphPad Prism software with kinase activities data measured with 9 points 2-fold serial dilution of compounds treatment. In cell pMLC IC50s were calculated with data obtained from A7R5 cell experiments. A7R5 cells were treated with 9 points 2-fold serial dilution of compounds and ppMlc (T18/S19) levels were determined to calculate cellular IC50 values of the compounds using the nonlinear regression curve fit function of the GraphPad Prism software. NIH3T3 cells stably expressing ACTA2-promoter-driven-luciferase were applied to measure ROCK compounds functional IC50s in cells. Cells were plated in 96 well plates to confluence and treated with 9 points serial dilution of compounds in combination with TGFβ1 for 24 hr. Luciferase activities were measured and compound's IC50s were calculated using the nonlinear regression curve fit function of the GraphPad Prism software.
ROCK inhibitors can be effectively rank ordered by ACTA2-promoter-driven-luciferase reporter cell assay. NIH3T3 cells stably expressing ACTA2-promoter-driven-luciferase were plated in 96 well plates to confluence and treated with 9 points serial dilution of compounds in combination with TGFβ1 for 24 hr. Luciferase activities were measured and compound's IC50s were calculated. By this assay multiple compounds of the invention gave IC50s under 200 nM.

[4] = read-out: pMLC % inh A7R5 @ [conc]
[5] = 9 points 2-fold serial dilution
[6] = NIH3T3 cells, plus TGFβ1 for 24 hr

Chain of Recombinant ROCK2 (amino acids 1-552) (O75116 1-552): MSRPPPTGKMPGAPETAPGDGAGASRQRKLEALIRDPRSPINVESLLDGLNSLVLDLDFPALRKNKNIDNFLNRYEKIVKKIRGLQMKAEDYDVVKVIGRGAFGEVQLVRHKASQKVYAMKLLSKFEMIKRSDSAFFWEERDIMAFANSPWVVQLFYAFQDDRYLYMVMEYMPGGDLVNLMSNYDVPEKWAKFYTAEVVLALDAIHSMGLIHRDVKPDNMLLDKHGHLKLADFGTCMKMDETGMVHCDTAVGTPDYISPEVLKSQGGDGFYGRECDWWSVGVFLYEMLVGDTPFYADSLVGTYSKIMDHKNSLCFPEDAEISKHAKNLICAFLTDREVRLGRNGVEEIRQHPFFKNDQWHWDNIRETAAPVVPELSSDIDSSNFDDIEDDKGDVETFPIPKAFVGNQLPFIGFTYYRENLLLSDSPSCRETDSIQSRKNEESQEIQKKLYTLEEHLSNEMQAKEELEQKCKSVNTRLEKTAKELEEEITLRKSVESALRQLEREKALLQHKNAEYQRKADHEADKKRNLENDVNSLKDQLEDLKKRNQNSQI

SMILES	IC50 [1] [nM]	IC50 [2] [nM]	IC50 ([3]; with TGFβ1, 24 hr) [nM]	inhibition at 0.5 µM [1] [%]	inhibition at 1 µM [2, 4] [%]	inhibition at 1 µM [1] [%]	IC50 [1, 5] [nM]	inhibition at 10 µM ([2]; 10 μM compound, read-out: pMLC % inh A7R5 @ [conc]) [%]	IC50 ([2]; ppMlc (T18/S19)) [nM]	IC50 [3, 6] [nM]
CCN(C)c1cc(Nc2ccc3[nH]ncc3c2)nc(N2C3CCC2CNC3)n1 [Example 332, 2-(3,8-diazabicyclo[3.2.1]octan-8-yl)-N4-ethyl-N6-(1H-indazol-5-yl)-N4-methylpyrimidine-4,6-diamine]	1.2	18	80							
Fc1cc2[nH]ncc2cc1Nc1nc(N2C3CNCC2C3)ncc1Cl [Example 295, N-(2-(3,6-diazabicyclo[3.1.1]heptan-6-yl)-5-chloropyrimidin-4-yl)-6-fluoro-1H-indazol-5-amine]	45	646	2210	98						
Cc1nc(N2CC3CC2CN3)nc(Nc2ccc3[nH]ncc3c2)c1F (centres unmarked) [Example 277, N-(2-(2,5-diazabicyclo[2.2.1]heptan-2-yl)-5-fluoro-6-methylpyrimidin-4-yl)-1H-indazol-5-amine]	3.7	45	245		63.4					
Clc1cnc(N2C3CNCC2C3)nc1Nc1ccc2[nH]ncc2c1 [Example 222, N-(2-(3,6-diazabicyclo[3.1.1]heptan-6-yl)-5-chloropyrimidin-4-yl)-1H-indazol-5-amine]	4.9	122	520		58.2	102				
FC(F)(F)c1nc(N2C3CCC2CNC3)nc(Nc2ccc3[nH]ncc3c2)c1Cl [Example 340, N-(2-(3,8-diazabicyclo[3.2.1]octan-8-yl)-5-chloro-6-(trifluoromethyl)pyrimidin-4-yl)-1H-indazol-5-amine]	20	362	894							
c1cc(-c2cn[nH]c2)ccc1Nc1nc(N2C3CNCC2C3)nc2c1CNC2 [Example 300, N-(4-(1H-pyrazol-4-yl)phenyl)-2-(3,6-diazabicyclo[3.1.1]heptan-6-yl)-6,7-dihydro-5H-pyrrolo[3,4-d]pyrimidin-4-amine]		> 10000	> 10000	68						
Cc1cc(Nc2ccc3[nH]ncc3c2)nc(N2CCNCC2)n1 [Example 205, N-(6-methyl-2-(piperazin-1-yl)pyrimidin-4-yl)-1H-indazol-5-amine]							61	55	415	1280
Fc1cnc(N2CC3CCC2CN3)nc1Nc1ccc2[nH]ncc2c1 (centres unmarked) [Example 154, N-(2-(2,5-diazabicyclo[2.2.2]octan-2-yl)-5-fluoropyrimidin-4-yl)-1H-indazol-5-amine]					36.2	98.5	245		433	2910
CCOC(=O)[C@H]1N[C@@H]2C[C@@H]1CN(c1ncc(Cl)c(Nc3ccc4[nH]ncc4c3)n1)C2 (stereo in doubt) [Example 326, Ethyl 3-(4-((1H-indazol-5-yl)amino)-5-chloropyrimidin-2-yl)-3,6-diazabicyclo[3.2.1]octane-7-carboxylate]	305	6290	> 10000	64						
FC(F)(F)c1cnc(N2C3CNCC2C3)nc1Nc1ccc2[nH]ncc2c1 [Example 304, N-(2-(3,6-diazabicyclo[3.1.1]heptan-6-yl)-5-(trifluoromethyl)pyrimidin-4-yl)-1H-indazol-5-amine]	17	413	980							
Fc1cnc(N2CC3CNC(C3)C2)nc1Nc1ccc2[nH]ncc2c1 (centres unmarked) [Example 166, N-(2-(3,6-diazabicyclo[3.2.1]octan-3-yl)-5-fluoropyrimidin-4-yl)-1H-indazol-5-amine]		259	2040		34.3	100				
Cc1cc(Nc2ccc3[nH]ncc3c2)nc(N2CCNCC(C)C2)n1 (centres unmarked) [Example 118, N-(6-methyl-2-(6-methyl-1,4-diazepan-1-yl)pyrimidin-4-yl)-1H-indazol-5-amine]					32.9	95.6	90		382	3730
